Measured values: ChEMBL document CHEMBL2203235, “Optimization of a natural product-based class of γ-secretase modulators” (J Med Chem, 2012)

Assays:
[1] = system: Liver microsomes; assay: Metabolic stability in human liver microsomes at 1 uM after 60 mins by LC/MS/MS analysis; settings: 1 h
[2] = Modulation of gamma secretase in CHO-2B7 cells assessed as reduction in amyloid beta 40 level after 5 hrs by MSD ELISA; format: cell-based; settings: Cricetulus griseus, CHO-2B7, 5 h
[3] = Modulation of gamma secretase in CHO-2B7 cells assessed as reduction in amyloid beta 42 level after 5 hrs by MSD ELISA; format: cell-based; settings: Cricetulus griseus, CHO-2B7, 5 h

SMILES	Stability [1]	IC50 [2] [nM]	IC50 [3] [nM]
CC(C)[C@@H](OC(=O)N1CCC1)[C@H]1C[C@@H](C)[C@H]2[C@H](O1)[C@H](O)[C@@]1(C)[C@@H]3CC[C@H]4C(C)(C)[C@@H](O[C@H]5CN(CCCC(=O)O)CCO5)CC[C@@]45C[C@@]35CC[C@]21C	Stable	7500	280
CC(C)[C@@H](OC(=O)N1CCC1)[C@H]1C[C@@H](C)[C@H]2[C@H](O1)[C@H](O)[C@@]1(C)[C@@H]3CC[C@H]4C(C)(C)[C@@H](O[C@H]5CN(C)CCO5)CC[C@@]45C[C@@]35CC[C@]21C	Stable	8400	770
C[C@@H]1C[C@H]([C@H](O)C(C)(C)O)O[C@H]2[C@H]1[C@@]1(C)CC[C@@]34C[C@@]35CC[C@H](OC(=O)N3CCOCC3)C(C)(C)[C@@H]5CC[C@H]4[C@]1(C)[C@H]2O			9000
CCO[C@@H]([C@H]1C[C@@H](C)[C@H]2[C@H](O1)[C@H](O)[C@@]1(C)[C@@H]3CC[C@H]4C(C)(C)[C@@H](O[C@H]5CN(C(=O)CC6CNC6)CCO5)CC[C@@]45C[C@@]35CC[C@]21C)C(C)(C)O	Stable	2500	120
CCO[C@@H]([C@H]1C[C@@H](C)[C@H]2[C@H](O1)[C@H](O)[C@@]1(C)[C@@H]3CC[C@H]4C(C)(C)[C@@H](O[C@H]5CN(C6CCOCC6)CCO5)CC[C@@]45C[C@@]35CC[C@]21C)C(C)(C)O	Stable	5000	350
CCO[C@@H]([C@H]1C[C@@H](C)[C@H]2[C@H](O1)[C@H](O)[C@@]1(C)[C@@H]3CC[C@H]4C(C)(C)[C@@H](OC(=O)N5CC[C@@H](C(=O)O)C5)CC[C@@]45C[C@@]35CC[C@]21C)C(C)(C)O	Stable	14000	540
CC(C)[C@@H](OC(=O)N1CCC1)[C@H]1C[C@@H](C)[C@H]2[C@H](O1)[C@H](O)[C@@]1(C)[C@@H]3CC[C@H]4C(C)(C)[C@@H](OC(=O)NCCC(=O)O)CC[C@@]45C[C@@]35CC[C@]21C	Stable	13000	610
CCO[C@@H]([C@H]1C[C@@H](C)[C@H]2[C@H](O1)[C@H](O)[C@@]1(C)[C@@H]3CC[C@H]4C(C)(C)[C@@H](OC(=O)N5CCN(CC(=O)O)CC5)CC[C@@]45C[C@@]35CC[C@]21C)C(C)(C)O	Stable	10000	290
CCO[C@@H]([C@H]1C[C@@H](C)[C@H]2[C@H](O1)[C@H](O)[C@@]1(C)[C@@H]3CC[C@H]4C(C)(C)[C@@H](O[C@H]5CN(CCN6CCC6)CCO5)CC[C@@]45C[C@@]35CC[C@]21C)C(C)(C)O	Stable	2900	110
CC(C)[C@@H](OC(=O)N1CCC1)[C@H]1C[C@@H](C)[C@H]2[C@H](O1)[C@H](O)[C@@]1(C)[C@@H]3CC[C@H]4C(C)(C)[C@@H](OC(=O)N[C@@H]5CCNC5=O)CC[C@@]45C[C@@]35CC[C@]21C	Stable	5900	180
CCO[C@@H]([C@H]1C[C@@H](C)[C@H]2[C@H](O1)[C@H](O)[C@@]1(C)[C@@H]3CC[C@H]4C(C)(C)[C@@H](O[C@H]5CN([C@@H]6CCOC6)CCO5)CC[C@@]45C[C@@]35CC[C@]21C)C(C)(C)O	Stable	3000	180
C[C@@H]1C[C@H]([C@H](O)C(C)(C)O)O[C@H]2[C@H]1[C@@]1(C)CC[C@@]34C[C@@]35CC[C@H](OC(=O)NCCN(C)C)C(C)(C)[C@@H]5CC[C@H]4[C@]1(C)[C@H]2O			5700
CC(C)[C@@H](OC(=O)N1CCC1)[C@H]1C[C@@H](C)[C@H]2[C@H](O1)[C@H](O)[C@@]1(C)[C@@H]3CC[C@H]4C(C)(C)[C@@H](OC(=O)N[C@@H]5CCCNC5=O)CC[C@@]45C[C@@]35CC[C@]21C	Stable	6600	380
CC(C)[C@@H](OC(=O)N1CCC1)[C@H]1C[C@@H](C)[C@H]2[C@H](O1)[C@H](O)[C@@]1(C)[C@@H]3CC[C@H]4C(C)(C)[C@@H](OC(=O)NC5CN(C)C5)CC[C@@]45C[C@@]35CC[C@]21C	Stable	6500	170
CCO[C@@H]([C@H]1C[C@@H](C)[C@H]2[C@H](O1)[C@H](O)[C@@]1(C)[C@@H]3CC[C@H]4C(C)(C)[C@@H](OC(=O)NC5CN(C)C5)CC[C@@]45C[C@@]35CC[C@]21C)C(C)(C)O	Stable	980	65
CCO[C@@H]([C@H]1C[C@@H](C)[C@H]2[C@H](O1)[C@H](O)[C@@]1(C)[C@@H]3CC[C@H]4C(C)(C)[C@@H](O[C@H]5CN(CCN6CCOC6=O)CCO5)CC[C@@]45C[C@@]35CC[C@]21C)C(C)(C)O	Stable	1900	150

SMILES	Stability [1]	IC50 [2] [nM]	IC50 [3] [nM]
CCO[C@@H]([C@H]1C[C@@H](C)[C@H]2[C@H](O1)[C@H](O)[C@@]1(C)[C@@H]3CC[C@H]4C(C)(C)[C@@H](OC(=O)N5CCC5)CC[C@@]45C[C@@]35CC[C@]21C)C(C)(C)O	Stable	5000	140
CCO[C@@H]([C@H]1C[C@@H](C)[C@H]2[C@H](O1)[C@H](O)[C@@]1(C)[C@@H]3CC[C@H]4C(C)(C)[C@@H](O[C@H]5CN([C@H]6CCOC6)CCO5)CC[C@@]45C[C@@]35CC[C@]21C)C(C)(C)O	Stable	6200	420
CCO[C@@H]([C@H]1C[C@@H](C)[C@H]2[C@H](O1)[C@H](O)[C@@]1(C)[C@@H]3CC[C@H]4C(C)(C)[C@@H](O[C@H]5CN(C(=O)C(C)C)CCO5)CC[C@@]45C[C@@]35CC[C@]21C)C(C)(C)O	Stable	3500	170
CC(C)[C@@H](OC(=O)N1CCC1)[C@H]1C[C@@H](C)[C@H]2[C@H](O1)[C@H](O)[C@@]1(C)[C@@H]3CC[C@H]4C(C)(C)[C@@H](O[C@H]5CN(C(=O)CN6CCC6)CCO5)CC[C@@]45C[C@@]35CC[C@]21C	Stable	7700	110
CCO[C@@H]([C@H]1C[C@@H](C)[C@H]2[C@H](O1)[C@H](O)[C@@]1(C)[C@@H]3CC[C@H]4C(C)(C)[C@@H](OC(=O)N[C@H]5CCNC5=O)CC[C@@]45C[C@@]35CC[C@]21C)C(C)(C)O	Stable	2900	190
CCO[C@@H]([C@H]1C[C@@H](C)[C@H]2[C@H](O1)[C@H](O)[C@@]1(C)[C@@H]3CC[C@H]4C(C)(C)[C@@H](O[C@H]5CN(C6(C)COC6)CCO5)CC[C@@]45C[C@@]35CC[C@]21C)C(C)(C)O	Stable	5800	400
CC(C)[C@@H](OC(=O)N1CCC1)[C@H]1C[C@@H](C)[C@H]2[C@H](O1)[C@H](O)[C@@]1(C)[C@@H]3CC[C@H]4C(C)(C)[C@@H](OC(=O)NCCCC(=O)O)CC[C@@]45C[C@@]35CC[C@]21C	Stable	7200	280
CC(C)C(=O)N1CCO[C@@H](O[C@H]2CC[C@]34C[C@]35CC[C@]3(C)[C@@H]6[C@H](O[C@@H]([C@H](OC(=O)N7CCC7)C(C)C)C[C@H]6C)[C@H](O)[C@@]3(C)[C@@H]5CC[C@H]4C2(C)C)C1	Stable	11000	400
CC(C)[C@@H](OC(=O)N1CCC1)[C@H]1C[C@@H](C)[C@H]2[C@H](O1)[C@H](O)[C@@]1(C)[C@@H]3CC[C@H]4C(C)(C)[C@@H](OC(=O)N(C)CC(=O)O)CC[C@@]45C[C@@]35CC[C@]21C	Stable	480	1790
CC(C)[C@@H](OC(=O)N1CCC1)[C@H]1C[C@@H](C)[C@H]2[C@H](O1)[C@H](O)[C@@]1(C)[C@@H]3CC[C@H]4C(C)(C)[C@@H](OC(=O)N(C)C)CC[C@@]45C[C@@]35CC[C@]21C	Stable	1400	1300
CCO[C@@H]([C@H]1C[C@@H](C)[C@H]2[C@H](O1)[C@H](O)[C@@]1(C)[C@@H]3CC[C@H]4C(C)(C)[C@@H](O[C@H]5CN(CCF)CCO5)CC[C@@]45C[C@@]35CC[C@]21C)C(C)(C)O	Stable	4700	240
CCO[C@@H]([C@H]1C[C@@H](C)[C@H]2[C@H](O1)[C@H](O)[C@@]1(C)[C@@H]3CC[C@H]4C(C)(C)[C@@H](OC(=O)NCCN(C)C)CC[C@@]45C[C@@]35CC[C@]21C)C(C)(C)O	Stable	17000	240
CC(C)[C@@H](OC(=O)N1CCC1)[C@H]1C[C@@H](C)[C@H]2[C@H](O1)[C@H](O)[C@@]1(C)[C@@H]3CC[C@H]4C(C)(C)[C@@H](OC(=O)NCC(=O)O)CC[C@@]45C[C@@]35CC[C@]21C	Stable	7200	420
C[C@@H]1C[C@H]([C@H](O)C(C)(C)O)O[C@H]2[C@H]1[C@@]1(C)CC[C@@]34C[C@@]35CC[C@H](OC(=O)NC3CN6CCC3CC6)C(C)(C)[C@@H]5CC[C@H]4[C@]1(C)[C@H]2O (stereo partly specified)			580
CC(=O)O[C@@H]([C@H]1C[C@@H](C)[C@H]2[C@H](O1)[C@H](O)[C@@]1(C)[C@@H]3CC[C@H]4C(C)(C)[C@@H](O)CC[C@@]45C[C@@]35CC[C@]21C)C(C)(C)O			600
C[C@@H]1C[C@H]([C@H](O)C(C)(C)O)O[C@H]2[C@H]1[C@@]1(C)CC[C@@]34C[C@@]35CC[C@H](OC(=O)N3CCC3)C(C)(C)[C@@H]5CC[C@H]4[C@]1(C)[C@H]2O			13000
